What all share (assay): NCI anticancer screen, dose series, 48 h
The subject of experiment [1] is RXF 393 renal.
Experiment [2] concerns A549 NSCLC.
In experiment [3] the test system is OVCAR-5 ovarian.
Experiment [4] has as its system NCI-H460 lung.
The subject of experiment [5] is HCC-2998 colon.
Experiment [6] relates to HOP-62 NSCLC.
The subject of experiment [7] is SK-MEL-28 melanoma.
For experiment [8], the system named is SF-295 CNS.
Experiment [9] deals with SNB-75 CNS.
Experiment [10] concerns UACC-257 melanoma.

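Tested at 5 concentrations; 48 h exposure; 96-well plates; endpoints linearly interpolated, else capped at highest concentration. GI50: concentration for 50% inhibition of growth. TGI: total growth inhibition.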 Some results are limits rather than exact numbers.

In the case of `Cc1ccc(C2NC(=O)c3ccccc3N2)s1` (stereo not given), the TGI in [1] is greater than 100 µM; in [2], greater than 100 µM; in experiment [3], greater than 100 µM; in [4], 58.4 µM; in experiment [5], 39.7 µM; in [6], greater than 100 µM. Further, the results for the TGI in [7] and in experiment [8] were greater than 100 µM and 6.87 µM, respectively.

For `CC(=O)OC1CC2Oc3ccc(C)cc3C(C)(O2)C1=O` (stereo not given), the TGI in experiment [1], in experiment [2], in experiment [9], in experiment [4], in experiment [6] and in [7] was greater than 100 µM throughout. Moreover, the TGI in experiment [8] and in experiment [10] was greater than 100 µM in each case.

On to `COc1ccc(N/N=C(\CCN(C)C)c2ccccc2)cc1`, for which the TGI in experiment [1] came to 29.7 µM; in experiment [9] it was 53 µM; in [3] it was 91.7 µM; in [4] it was 10.8 µM; in experiment [6] it was 9.77 µM; in experiment [7] it was 7.83 µM. The TGI was determined as 1.65 µM in [8] and 16.4 µM in [10].

`CN(C)CCNC(=O)c1cccc2c(Nc3ccc(S(N)(=O)=O)cc3)c3ccccc3nc12`: the TGI in experiment [2] turned out to be 7.29 µM; in experiment [9], 4.48 µM; in experiment [3], 6.56 µM; in experiment [4] it was 1.96 µM; in experiment [5], 6.92 µM; in [6], 11.6 µM. Moreover, the TGI in experiment [7] worked out at 3 µM; in [8] it was 8.02 µM; in experiment [10], 9.83 µM.

For `NC(=O)c1coc(C2OC(CO)C(O)C2O)n1` (stereo not given), the TGI in experiment [2], in experiment [3], in experiment [4], in [5], in experiment [6] and in experiment [7] was greater than 100 µM in each case.

On to `Cc1ccc(C(=O)Nc2ccc(S(=O)(=O)O)c3cc(S(=O)(=O)O)cc(S(=O)(=O)O)c23)cc1NC(=S)Nc1cc(C(=O)Nc2ccc(S(=O)(=O)O)c3cc(S(=O)(=O)O)cc(S(=O)(=O)O)c23)ccc1C`, for which the TGI in experiment [2], in experiment [9], in experiment [3], in [4], in experiment [5] and in [6] was greater than 75 µM each time. Moreover, the TGI in experiment [7] and in experiment [10] was greater than 75 µM each time.

As to `O=Cc1ccc(-c2ccc(-c3nc4ccccc4o3)cc2)s1`, the GI50 was 49.4 µM in [1]; 70500 nM in experiment [2]; 78400 nM in experiment [3]; 23.7 µM in [4]; 45.2 µM in experiment [5]; 27.9 µM in experiment [6]. Also, the GI50 in [7] is 24100 nM; in experiment [8], 24200 nM; in experiment [10], 49.3 µM. Besides, the TGI is greater than 100 µM in experiment [1]; greater than 100 µM in experiment [2]; greater than 100 µM in experiment [3]; 85.3 µM in [4]; greater than 100 µM in experiment [5]; 82 µM in experiment [6]. Further, the TGI is greater than 100 µM in experiment [7], 87.8 µM in [8] and greater than 100 µM in experiment [10].

`O=c1cc(-c2ccccc2)oc2cc(O)cc(O)c12`: the TGI in [2] was greater than 100 µM; in [9] it was 31.2 µM; in experiment [3], 37.4 µM; in [4], 40.2 µM; in [5] it was 38.6 µM; in [6], greater than 100 µM. The TGI in experiment [7] stood at 43.5 µM; in [8] it was 37.6 µM; in experiment [10] it was 62.3 µM.

With `COc1ccc(Cc2cc3c(cc2OCC(=O)O)OCO3)cc1`, the TGI in [1], in [2], in [3], in [4], in experiment [5] and in experiment [6] was greater than 100 µM each time. The TGI in experiment [7], in experiment [8] and in [10] was greater than 100 µM in each case.

As for `COC(=O)NC1(NC(=O)OC)NC(=O)c2cc(OC)c(OC)c(OC)c2N1`, the TGI in experiment [2] is greater than 100 µM; in experiment [9], 38.8 µM; in experiment [3] it was greater than 100 µM; in [4], greater than 100 µM; in [5], greater than 100 µM; in experiment [6] it was greater than 100 µM. The TGI in experiment [7], in experiment [8] and in experiment [10] was greater than 100 µM throughout.

As for `COc1cc2c3c(n(CCCNCCCNCCCNCCCN)c(=O)c2cc1OC)-c1cc2c(cc1C3=O)OCO2`, the GI50 was 1.7 µM in experiment [1]; 2200 nM in experiment [2]; 2980 nM in experiment [9]; 1760 nM in experiment [3]; 1.32 µM in experiment [4]; 3.01 µM in [6]. Moreover, the GI50 in experiment [7] is 2290 nM; in experiment [8] it was 1380 nM; in [10], 3.72 µM. The TGI amounted to 4.46 µM in [1]; 11.7 µM in [2]; 13.6 µM in experiment [9]; 5.63 µM in experiment [3]; 4.25 µM in experiment [4]; 13 µM in experiment [6]. The results for the TGI in [7], in experiment [8] and in experiment [10] were 25.2 µM, 3.97 µM and 17.2 µM, respectively.

With `C=C1c2[nH]c3ccccc3c2C2C(CC)C1CCN2C` (stereo not given), the TGI in [1] is greater than 100 µM; in experiment [2] it was greater than 100 µM; in experiment [3] it was greater than 100 µM; in experiment [4] it was greater than 100 µM; in experiment [5], 37.8 µM; in experiment [6], greater than 100 µM. For the same compound, the TGI in [7] is 77.2 µM; in experiment [8] it was greater than 100 µM; in experiment [10] it was 95.6 µM.

In the case of `CC#C/C(=N\OC[C@H]1COCCN1)c1ccc2ncnc(Nc3ccc(OCc4cccc(F)c4)c(Cl)c3)c2c1`, the GI50 in [2] is 1640 nM; in experiment [9], 1460 nM; in [3] it was 1650 nM; in experiment [5] it was 1.84 µM; in experiment [6], 3 µM; in [7], 1770 nM. Further, the GI50 in experiment [8] was 1720 nM; in [10], 1.85 µM. For the same compound, the TGI worked out at 9.85 µM in [2]; 2.82 µM in experiment [9]; 4.27 µM in experiment [3]; 3.41 µM in experiment [5]; 11.3 µM in [6]; 3.34 µM in experiment [7]. Further, the TGI worked out at 3.26 µM in experiment [8] and 3.45 µM in [10].
